Data from US4250259A, “Microbiological production of ketones from C3 -C6 secondary alcohols” (priority 1979, dated 1981).

Key:
[1] = test system: secondary alcohol dehydrogenase (SADH), cell-free soluble extract; test: oxidation of sec-alcohols by cell-free soluble extracts; type: biochemical, Methylobacterium organophilum CRL 26 (NRRL B-11,222); conditions: soluble crude extract; grown on methanol
Procedure: (§1) To prepare the cell-free secondary alcohol dehydrogenase (SADH) system, the washed cells were disrupted with a Wave Energy Ultrasonic Oscillator, Model W201 (Wave Energy System, Inc., Newtown, Pa.) and centrifuged at 20,000×g. for 30 minutes. […] The enzyme activity was measured with a fluorescence spectrophotometer (Perkin Elmer, Model MPF 44A) by following the formation of reduced NAD (EX 340 nm, Em 460 nm). The formation of reduced NAD was also followed with an absorption spectrophotometer at 340 nm. The assay system (3 ml.) contained: potassium phosphate buffer pH 7.0; 150 μmol.; NAD 1 μmol.; a given amount of enzyme preparation; and secondary alcohol 10 μmol. The reaction was started by the addition of substrate. One unit of enzyme activity represents the reduction of one μmole NAD per minute. Protein concentrations were determined by the Lowry method (J. Biol. Chem., 193: 255-275 (1951)).
(§2) The experimental procedure for the tests reported in Table VIII were as follows: 1 mg protein of crude extract was added into a 0.5 ml. 0.05 M phosphate buffer (pH 7.0) in a 10-ml. vial. […] The reaction mixture was incubated at 30° C. on a water bath. A 3 μl sample was removed with a syringe at 15 min. of incubation and was assayed with g.l.c. Catalytic activity was also assayed by fluorescence spectrophotometry.

[2] = test system: cell extracts (NAD+-dependent secondary alcohol dehydrogenase); test: sec-alcohols to methyl ketones by cell extracts of yeasts, gas chromatography; type: biochemical, Torulopsis sp. strain A1 NRRL-Y-11,419; conditions: grown on methanol
[3] = test system: cell suspensions of C1-utilizers; test: studies on production of 2-butanone from 2-butanol by cell suspensions of the strains tested; type: cell-based; conditions: cell suspensions
Text: The following summarizes tests conducted on the optimal conditions for the production of methyl ketones from C3 -C6 sec. alcohols.
The substrate specificity for the oxidation of C3 -C6 secondary alcohols by the strains of C1 -utilizers was studied.

[4] = test system: purified secondary alcohol dehydrogenase; test: substrate specificity, electron acceptor and stoichiometry of purified yeast SADH; conditions: for oxidation by the purified yeast secondary alcohol dehydrogenase: examined spectrophotometrically
[5] = test system: cell extracts (NAD+-dependent secondary alcohol dehydrogenase); test: sec-alcohols to methyl ketones by cell extracts of yeasts, gas chromatography; type: biochemical, Kloeckera sp. strain A2 NRRL-Y-11,420; conditions: grown on methanol
[6] = test system: purified secondary alcohol dehydrogenase (SADH); test: substrate specificity and Michaelis constants of purified SADH; type: biochemical, Pseudomonas sp. ATCC 21439
[7] = test system: Pichia sp. NRRL-Y-11328; test: sec-alcohols to ketones by cell suspensions of yeasts; type: cell-based
[8] = test system: Hansenula polymorpha ATCC 26012; test: as above; type: cell-based
[9] = test system: secondary alcohol dehydrogenase (SADH), cell-free soluble extract; test: oxidation of sec-alcohols by cell-free soluble extracts; type: biochemical, Methylococcus capsulatus CRL M1 (NRRL B-11,219); conditions: soluble crude extract; grown on methanol
Procedure: as §1, §2

[10] = test system: Methylomonas albus BG8 (NRRL B-11,200); test: sec-alcohols to ketones by resting cell suspensions; type: cell-based
Procedure: (§3) The pH of the nutrient medium was adjusted to 7.0 by the addition of acid or base and 50 ml. samples of the nutrient medium were charged into a plurality of 300 ml. shaker flasks. The shaker flasks were inoculated with an inoculating loop of cells from an agar plate containing homogeneous colonies of the microorganisms on the plate (the purity of the isolates was confirmed by microscopic examination). The isolates had been maintained on methanol (0.4% V/V) agar plates or on agar plates under an atmosphere of methane and air having a 1:1 V/V gas ratio which had been transferred every two weeks. For growth on methanol, the medium was supplemented with 0.4% methanol. For growth on methane, the gaseous phase of the inoculated flasks was replaced with a gas mixture comprised of methane and air having a ratio of 1:1 on a V/V basis. The inoculated flasks were sealed air-tight and were incubated on a rotary shaker of orbital radius 2.5 cm. at 250 rpm and at 30° C. for two days until turbidity in the medium had developed. The cells were harvested by centrifugation at 10,000×g. at 4° C. for 30 minutes. The cell pellet was washed twice with a 0.05 M phosphate buffer at a pH of 7.0 (containing 0.02 M MgCl2). The washed cells were then suspended in a 0.05 M phosphate buffer at pH 7.0.
(§4) A 0.5 ml. sample of each washed cell suspension (2 mg. cells) was put into 10 ml. vials at 4° C. which were sealed with a rubber cap. The gaseous phase of the vials was removed with vacuum and then was replaced with a gas mixture of the substrate reactant (i.e., alkane or secondary alcohol) and oxygen at a 1:1 V/V ratio. (In the case of a liquid substrate, i.e., secondary alcohol, 10 μl of the substrate was put in the 10 ml. vials). […] Samples of product (1-3 μl) were withdrawn periodically with a microsyringe and the products were analyzed by gas chromatography (ionization flame detector column).
(§5) The procedure in Example 1 was repeated wherein a plurality of the methane-utilizing methylotrophic microorganisms were each grown aerobically in a nutrient medium containing methane as the alcohol dehydrogenase enzyme inducer and as the major carbon and energy source for growth. The cells were harvested and washed as described in Example 1. The resting microbial cells of the induced methane-grown methane-utilizing methylotrophic microorganisms were then contacted with C3 -C6 secondary alcohols in a buffered solution by the procedure of Example 1.
(§6) In this example, the procedure in Example 1 was repeated except that a plurality of methane-utilizing methylotrophic microorganisms were each aerobically grown in a methanol-containing nutrient medium instead of a methane-containing medium. The nutrients in the medium were the same as indicated in Example 1 except that 0.4% V/V methanol was used as the alcohol dehydrogenase inducer and major source of carbon and energy for growth. Following growth, the cells were harvested and washed as described in Example 1.
(§7) The resting cells of the induced methanol-grown methylotrophic microorganisms were then contacted with secondary alcohols in a buffered solution by the procedure described in Example 1.

[11] = test system: Methylosinus sporium 5 (NRRL B-11,197); test: as above; type: cell-based
Procedure: as §3, §4, §5, §6, §7

SMILES	Oxidation Rate, sec-alcohol to corresponding ketone [1] [nmole/min/mg protein]	Conversion Rate, sec-alcohol to methyl ketone [2] [μmoles/hr/mg Protein]	rate of oxidation of secondary alcohols by strains of C1-utilizers [3]	oxidation by the purified yeast secondary alcohol dehydrogenase [4]	Conversion Rate, sec-alcohol to methyl ketone [5] [μmoles/hr/mg Protein]	oxidation by purified SADH [6]	Conversion Rate, sec-alcohol to corresponding ketone ([7]; Growth Substrate Ethanol)	Conversion Rate, sec-alcohol to corresponding ketone ([7]; Growth Substrate Methanol)	Conversion Rate, sec-alcohol to corresponding ketone ([7]; Growth Substrate Methylamine)	Conversion Rate, sec-alcohol to corresponding ketone ([7]; Growth Substrate Methylformate)	Conversion Rate, sec-alcohol to corresponding ketone ([7]; Growth Substrate Propylamine)	Conversion Rate, sec-alcohol to corresponding ketone ([8]; Growth Substrate Ethanol)	Conversion Rate, sec-alcohol to corresponding ketone ([8]; Growth Substrate Methanol)	Conversion Rate, sec-alcohol to corresponding ketone ([8]; Growth Substrate Methylamine)	Conversion Rate, sec-alcohol to corresponding ketone ([8]; Growth Substrate Methylformate)	Conversion Rate, sec-alcohol to corresponding ketone ([8]; Growth Substrate Propylamine)	Oxidation Rate, sec-alcohol to corresponding ketone [9] [nmole/min/mg protein]	other results
CCCC(C)O (centres unmarked) [2-Pentanol, 2-pentanol]	0.1	1.0	much slower rate	catalyzed the oxidation	1.2	lower rate	1.0 μmoles/hr/mg of protein	1.2 μmoles/hr/mg of protein	0.72 μmoles/hr/mg of protein	0.98 μmoles/hr/mg of protein	0.60 μmoles/hr/mg of protein	1.1 μmoles/hr/mg of protein	1.4 μmoles/hr/mg of protein	1.2 μmoles/hr/mg of protein	1.3 μmoles/hr/mg of protein	0.82 μmoles/hr/mg of protein	0.1	
CC(C)O [2-Propanol, 2-propanol]	2.1	4.5	higher rates	catalyzed the oxidation	4.8	highest	4.5 μmoles/hr/mg of protein	5.2 μmoles/hr/mg of protein	4.2 μmoles/hr/mg of protein	4.9 μmoles/hr/mg of protein	3.2 μmoles/hr/mg of protein	5.0 μmoles/hr/mg of protein	5.9 μmoles/hr/mg of protein	5.2 μmoles/hr/mg of protein	5.6 μmoles/hr/mg of protein	4.1 μmoles/hr/mg of protein	1.7	Conversion Rates, sec-alcohol to corresponding ketone ([10]; cells grown on methane): 1.3 μmoles/hr/mg protein; Conversion Rates, sec-alcohol to corresponding ketone ([10]; cells grown on methanol): 1.5 μn moles/hr/mg protein; Conversion Rates, sec-alcohol to corresponding ketone ([11]; cells grown on methane): 0.30 μmoles/hr/mg protein; Conversion Rates, sec-alcohol to corresponding ketone ([11]; cells grown on methanol): 0.45 μn moles/hr/mg protein; Product Formed ([4]; stoichiometry, Acetone from Isopropanol, 2-Butanone from 2-Butanol, gas chromatography): 5.5 µmol
CCCCC(C)O (centres unmarked) [2-Hexanol, 2-hexanol]	0	0.21	much slower rate	catalyzed the oxidation	0.25	lower rate	0.28 μmoles/hr/mg of protein	0.50 μmoles/hr/mg of protein	0.31 μmoles/hr/mg of protein	0.48 μmoles/hr/mg of protein	0.21 μmoles/hr/mg of protein	0.54 μmoles/hr/mg of protein	0.72 μmoles/hr/mg of protein	0.62 μmoles/hr/mg of protein	0.70 μmoles/hr/mg of protein	0.48 μmoles/hr/mg of protein	0	
